Experimental data reported in patent publication US7378530B2, “Anti-cancer and anti-microbial 5-membered heterocyclic compounds” (Nereus Pharmaceuticals, Inc., priority 2005, dated 2008).

How the values were obtained:
[1] = test system: Staphylococcus aureus - MSSA; test: Antimicrobial assay, MIC (NCCLS M7-A5); format: cell-based, Staphylococcus aureus (methicillin sensitive)
Procedure: (§1) Minimum inhibitory concentrations (MICs) were determined according to the National Committee for Clinical Laboratory Standards (NCCLS) susceptibility test guideline M7-A5 (Ferraro, M. 2001 Methods for Dilution Antimicrobial Susceptibility Tests for Bacteria that Grow Aerobically; Approved Standard (NCCLS). National Committee for Clinical Laboratory Standards (NCCLS), Villanova, which is incorporated herein by reference in its entirety). The compound of formula VI was tested in DMSO while the compound of formula VII was tested in aqueous MeOH. The compound of formulae VIII and IX were tested in DMSO.

PSSP = test: Antimicrobial assay, MIC (NCCLS M7-A5); format: cell-based, Streptococcus pneumonia (penicillin sensitive); settings: Streptococcus pneumoniae
Procedure: as §1

H. inf. 49766 = test: Antimicrobial assay, MIC (NCCLS M7-A5); format: cell-based; settings: Haemophilus influenzae
Procedure: as §1

H. inf. 49247 = test: Antimicrobial assay, MIC (NCCLS M7-A5); format: cell-based; settings: Haemophilus influenzae
Procedure: as §1

[2] = test system: Staphylococcus aureus - MRSA; test: Antimicrobial assay, MIC (NCCLS M7-A5); format: cell-based, Staphylococcus aureus (methicillin resistant)
Procedure: as §1

[3] = test system: Gram-negative microorganism Haemophilus influenzae; test: Antimicrobial assays, summary for Haemophilus influenzae; format: cell-based
Procedure: as §1

[4] = test system: Gram-positive microorganisms tested; test: Antimicrobial assays, summary for Gram-positive microorganisms; format: cell-based
Procedure: as §1

VSE = test: Antimicrobial assay, MIC (NCCLS M7-A5); format: cell-based, Enterococcus faecalis (vancomycin sensitive); settings: Enterococcus faecalis
Procedure: as §1

Candida albicans = test: Antimicrobial assay, MIC (NCCLS M7-A5); format: cell-based
Procedure: as §1

E. c. MCR106 = test: Antimicrobial assay, MIC (NCCLS M7-A5); format: cell-based
Procedure: as §1

E. c. imp = test: Antimicrobial assay, MIC (NCCLS M7-A5); format: cell-based
Procedure: as §1

E. c. 25922 = test: Antimicrobial assay, MIC (NCCLS M7-A5); format: cell-based
Procedure: as §1

S. epi. 700582 = test: Antimicrobial assay, MIC (NCCLS M7-A5); format: cell-based, Staphylococcus epidermis (multiple drug resistant); settings: Staphylococcus
Procedure: as §1

S. epi. 700578 = test: Antimicrobial assay, MIC (NCCLS M7-A5); format: cell-based, Staphylococcus epidermis (multiple drug resistant); settings: Staphylococcus
Procedure: as §1

PRSP = test: Antimicrobial assay, MIC (NCCLS M7-A5); format: cell-based, Streptococcus pneumonia (penicillin resistant); settings: Streptococcus pneumoniae
Procedure: as §1

VRE = test: Antimicrobial assay, MIC (NCCLS M7-A5); format: cell-based, Enterococcus faecium (vancomycin resistant); settings: Enterococcus
Procedure: as §1

B16-F10 cells = test: Growth inhibition of murine melanoma B16-F10 cells (resazurin fluorescence); format: cell-based
Procedure: B16-F10 (ATCC; CRL-6475) a murine melanoma cell line was maintained in complete Dulbecco's Modification of Eagle's Medium (DMEM) (DMEM supplemented with 10% (v/v) Fetal bovine serum, 2 mM glutamine, 10 mM HEPES and Penicillin/Streptomycin at 100 IU/ml and 100 μg/ml respectively). The cells were cultured in an incubator at 37° C. in 5% CO2 and 95% humidified air. […] 20 mM stock solutions of formula VI were prepared in 100% DMSO. 10× concentrated serial dilutions of formula VI were prepared in complete media. Ten μl volumes of the serial dilutions were added to the test wells in triplicate resulting in final concentrations ranging from 20 μM to 6.32 nM. The plates were returned to the incubator for 48 hours. The final concentration of DMSO was 0.25% in all samples. Following 48 hours of drug exposure, 10 μl of 0.2 mg/ml resazurin (obtained from Sigma-Aldrich Chemical Co.) in Mg^2+, Ca^2+ free phosphate buffered saline was added to each well and the plates were returned to the incubator for 3-6 hours. Since living cells metabolize Resazurin, the fluorescence of the reduction product of Resazurin was measured using a Fusion microplate fluorometer (Packard Bioscience) with λex=535 nm and λem=590 nm filters. Resazurin dye in medium without cells was used to determine the background, which was subtracted from the data for all experimental wells. […]

CCCCCCC/C(C)=C/C(=O)CC(=N)OC(CCCC)C(=O)O (stereo not shown) [Formula IX]
MIC ([1]; tested in DMSO): 24 µg/mL | MIC (PSSP; tested in DMSO): > 32 µg/mL | MIC (H. inf. 49766; tested in DMSO): > 32 µg/mL | MIC (H. inf. 49247; tested in DMSO): > 32 µg/mL | MIC ([2]; tested in DMSO): > 32 µg/mL

CCCCCC/C(C)=C/C(=O)C=C1NC(=O)C(CCCC)O1 (stereo not shown) [Formula VIII]
MIC ([1]; tested in DMSO): 4 µg/mL | MIC (PSSP; tested in DMSO): 10 µg/mL | MIC (H. inf. 49766; tested in DMSO): 5 µg/mL | MIC (H. inf. 49247; tested in DMSO): 16 µg/mL | activity against the Gram-negative microorganism Haemophilus influenzae (statement in words) [3]: weakly active | anti-bacterial activity versus the Gram-positive microorganisms tested (statement in words) [4]: possess anti-bacterial activity | MIC ([2]; tested in DMSO): 3 µg/mL

CCCCCCC/C(C)=C/C(=O)C=C1NC(=O)C(CCCCC)O1 (stereo not shown) [Formula VII]
MIC ([1]; tested in aqueous MeOH): 6 µg/mL | MIC (VSE; tested in aqueous MeOH): 3 µg/mL | MIC (PSSP; tested in aqueous MeOH): 8 µg/mL | MIC (Candida albicans; tested in aqueous MeOH): > 32 µg/mL | MIC (H. inf. 49766; tested in aqueous MeOH): 16 µg/mL | MIC (H. inf. 49247; tested in aqueous MeOH): 12 µg/mL | MIC (E. c. MCR106; tested in aqueous MeOH): > 32 µg/mL | MIC (E. c. imp; tested in aqueous MeOH): > 32 µg/mL | MIC (E. c. 25922; tested in aqueous MeOH): > 32 µg/mL | activity against the Gram-negative microorganism Haemophilus influenzae (statement in words) [3]: weakly active | anti-bacterial activity versus the Gram-positive microorganisms tested (statement in words) [4]: possess anti-bacterial activity | MIC (S. epi. 700582; tested in aqueous MeOH): 0.75 µg/mL | MIC (S. epi. 700578; tested in aqueous MeOH): 1.25 µg/mL | MIC (PRSP; tested in aqueous MeOH): 6 µg/mL | MIC ([2]; tested in aqueous MeOH): 1.5 µg/mL | MIC (VRE; tested in aqueous MeOH): 1.5 µg/mL

CCCCCCC/C(C)=C/C(=O)C=C1NC(=O)C(CCCC)O1 (stereo not shown) [Formula VI]
MIC ([1]; tested in DMSO): 0.88 µg/mL | MIC (VSE; tested in DMSO): 3.67 µg/mL | MIC (PSSP; tested in DMSO): 2.58 µg/mL | MIC (Candida albicans; tested in DMSO): > 32 µg/mL | MIC (H. inf. 49766; tested in DMSO): 12 µg/mL | MIC (H. inf. 49247; tested in DMSO): 12 µg/mL | MIC (E. c. MCR106; tested in DMSO): > 32 µg/mL | MIC (E. c. imp; tested in DMSO): > 32 µg/mL | MIC (E. c. 25922; tested in DMSO): > 32 µg/mL | activity against the Gram-negative microorganism Haemophilus influenzae (statement in words) [3]: weakly active | growth of B16-F10 tumor cells (statement in words) (B16-F10 cells): inhibits the growth | EC50 (B16-F10 cells; Mus musculus, B16-F10, 48 hours drug exposure, mean ± standard deviation of three independent experiments, read-out: EC50 against B16-F10 cells): 6 ± 2.6 µM | anti-bacterial activity versus the Gram-positive microorganisms tested (statement in words) [4]: possess anti-bacterial activity | MIC (S. epi. 700582; tested in DMSO): 0.54 µg/mL | MIC (S. epi. 700578; tested in DMSO): 0.54 µg/mL | MIC (PRSP; tested in DMSO): 4.67 µg/mL | MIC ([2]; tested in DMSO): 1.04 µg/mL | MIC (VRE; tested in DMSO): 1.83 µg/mL
